The nature of data set [1]: Thermodynamic solubility of compound in pH 6.8 phosphate buffer solution incubated overnight on shaker by shake flask based HPLC analysis. Particulars: read-out: Therm_solubility. The format is physicochemical.
Data set [2] is described as follows: Aqueous equilibrium solubility of compound in pH 6.8 phosphate buffer solution incubated overnight by shake flask based high throughput assay. It counts as physicochemical.
For data set [3], the target named is Fibroblast growth factor receptor 4 (Homo sapiens, UniProt P22455).

The record followed here is ChEMBL document CHEMBL4251697 (ACS Med Chem Lett, 2018).

Values after ≈ are worked out from the molar mass of the structure shown.

Sequence of Fibroblast growth factor receptor 4 (P22455 whole entry): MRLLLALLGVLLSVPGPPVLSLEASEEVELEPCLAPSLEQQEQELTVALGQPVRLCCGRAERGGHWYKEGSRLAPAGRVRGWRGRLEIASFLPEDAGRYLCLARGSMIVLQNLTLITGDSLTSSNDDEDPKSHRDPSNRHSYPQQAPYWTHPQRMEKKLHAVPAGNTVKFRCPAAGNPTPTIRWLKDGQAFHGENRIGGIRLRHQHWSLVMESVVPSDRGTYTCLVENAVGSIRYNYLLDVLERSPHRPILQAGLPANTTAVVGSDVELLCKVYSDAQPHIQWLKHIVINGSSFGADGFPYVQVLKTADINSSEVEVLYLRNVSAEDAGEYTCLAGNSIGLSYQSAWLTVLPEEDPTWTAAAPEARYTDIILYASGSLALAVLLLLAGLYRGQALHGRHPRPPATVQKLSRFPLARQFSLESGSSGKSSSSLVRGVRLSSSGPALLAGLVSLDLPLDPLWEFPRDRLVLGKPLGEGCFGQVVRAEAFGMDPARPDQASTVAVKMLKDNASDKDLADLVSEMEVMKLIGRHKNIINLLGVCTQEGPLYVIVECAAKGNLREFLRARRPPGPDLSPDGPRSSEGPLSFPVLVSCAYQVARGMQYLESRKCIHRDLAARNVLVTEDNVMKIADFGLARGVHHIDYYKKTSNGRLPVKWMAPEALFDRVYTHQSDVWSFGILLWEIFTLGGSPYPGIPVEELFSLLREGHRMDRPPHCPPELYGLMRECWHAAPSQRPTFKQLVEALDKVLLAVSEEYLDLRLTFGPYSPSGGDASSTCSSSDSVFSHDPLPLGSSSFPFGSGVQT

Consider `O=Cc1ccc2c(n1)N(C(=O)Nc1ccc(C(F)(F)F)cn1)CCC2`, for which the solubility thermodynamic was 4.9 µM (≈ 1.72 µg/mL) in data set [1] and below 4 µM in data set [2].
`CN(C)CCOc1cc(NC(=O)N2CCCc3ccc(C=O)nc32)ncc1C#N`: the solubility thermodynamic in data set [2] was 300 µM (≈ 118 µg/mL).
With `O=Cc1ccc2cccc(C(=O)Nc3ccc(C(F)(F)F)cn3)c2n1`, the solubility thermodynamic is below 2.9 µM in data set [1] and below 4 µM in data set [2].
As usually defined, the IC50 is the concentration at which inhibition is half-maximal. A lower IC50 goes with higher potency. As to `N#Cc1ccc(NC(=O)N2CCCc3ccc(CO)nc32)nc1`, the IC50 in data set [3] was above 10 µM.
The compound `COCCNc1cc(NC(=O)N(CCOC)c2cccc(C=O)n2)ncc1C#N` had a solubility thermodynamic in data set [2] above 1000 µM.
With `CN(C(=O)N1CCCc2ccc(C=O)nc21)c1ccc(C(F)(F)F)cn1`, the IC50 in data set [3] is above 10 µM.
Compound `CN(C)CCOc1cc(NC(=O)N2CCCc3cccnc32)ncc1C#N` returned a solubility thermodynamic in data set [2] of 173 µM (≈ 63.4 µg/mL).
